In patent US11440822B2, “Methods and uses of dissolved organic material fractions for binding metal ions” (priority 2016, dated 2022):

System: Scenedesmus obliquus
Assay: Toxicity of Cd to Scenedesmus obliquus cultures
Format: cell-based
Settings: Cd(NO3)2
Protocol: Laboratory grown cultures of Scenedesmus obliquus were obtained from the Canadian Phycological Culture Center (CPCC) in Waterloo, Ontario. The cells were grown using a bold basal media (BBM) at standard light regimes (16:8 h light to dark) fixed light intensity of 90-100 μmol photons […] and fixed temperature of 21° C. constantly aerated in a growth chamber.
Four algal cultures were grown in the presence of varying levels of Cd: control (0 μL^−1 Cd); EC20 (19.5 μL^−1Cd); EC30 (46.4 μL^−1 Cd) and EC40 (78.8 μL^−1 Cd) starting at 1 million cells per mL for Replicate 1 and 2 million cells per mL for Replicate 2. The cells were harvested in early stationary phase for further analysis.

## O=[N+]([O-])[O-].O=[N+]([O-])[O-].[Cd+2] [Cd, Cd(NO3)2]
  toxicity of Cd, EC20: 19.5 μL^−1Cd
  toxicity of Cd, EC30: 46.4 μL^−1 Cd
  toxicity of Cd, EC40: 78.8 μL^−1 Cd
